Values after ≈ are worked out from the molar mass of the structure shown. Read-outs that look alike come from different tables or passages of the source.
How the values were obtained:
[1] = half life of AFQ056 used to set the wash out period; settings: human, in vivo, oral; 50 mg and 100 mg doses
Source text: The study has a 3-Latin, 5-sequences×5-period open-label design that is suitable for comparing the pharmacokinetics including relative bioavailability of three modified release formulations of AFQ056. The immediate release capsule formulation (size O, IR) is used as a reference to enable comparisons with data obtained in previously completed trials. This study design allows the comparison of pharmacokinetic profile of AFQ056 from three modified release (MR) formulations relative to the IR formulation under fasted conditions, and to assess the food effect on the pharmacokinetics of the three MR forms. Latin-square design is selected as it offers maximum precision of comparison across different treatments with minimum number of study subjects. The cross-over design permits investigation of all five treatment conditions within each subject and is used to account for interindividual variability. […] Sampling for 72 hours post dose is considered sufficient for characterizing the PK profiles of all formulations, including the MR forms.

[2] = solubility of AFQ056 at 37° C. in different aqueous media (FIG. 2); type: physicochemical; settings: pure aqueous solution with raising ethanol levels
Procedure: FIG. 2 graphically depicts the solubility of AFQ056 at 37° C. in different aqueous media. […] Up to the amount of about 20% of ethanol in the solutions, the LDAO (Lauryldimethylamine N-oxide) in water solution and the water-ethanol solution show a different solubility pattern of AFQ056. In the presence of about 40% ethanol in the solutions, both the LDAO in water solution and the water-ethanol solution show a similar solubility for AFQ056.
The solubility pattern of AFQ056 was examined ([…]). […] In pure aqueous solutions the solubility of AFQ056 steadily increases with raising ethanol concentrations. The solubility pattern of AFQ056 in a LDAO water-ethanol solution is distinct from the solubility pattern of AFQ056 in a pure aqueous solution only up to an amount of 20% ethanol present in the solution. […] Immediate release forms of AFQ056 have therefore the inherent risk of dose dumping and can create severe consequences for the patient if ethanol-containing beverages are consumed in parallel. Particle size distribution is also an important factor influencing the dissolution of a drug substance and is known to influence the drug release from matrix tablets.

[3] = solubility in water and in ethanol at room temperature; type: physicochemical; settings: for solubility: room temperature
Source text: Particle size distribution is also an important factor influencing the dissolution of a drug substance and is known to influence the drug release from matrix tablets.

[4] = distribution coefficient Log P of drug substance; type: physicochemical
Procedure: AFQ056 is a chiral molecule with 3 asymmetric carbon atoms and has a melting point of about 115° C. One single polymorph has been identified.

[5] = system: L-dopa induced dyskinesias; assay: earlier studies of IR AFQ056 in Parkinson's disease patients; type: in vivo, human; settings: IR formulation
Source text: AFQ056 has previously been formulated as a hard gelatin capsule and as a powder for oral suspension, both with immediate release (IR) properties. […] The IR formulation used in these studies required twice-daily dosing.

[6] = Roberts et al., cited from earlier work

| Compound | half-life [1] [h] | solubility with raising ethanol levels [2] | solubility ([3]; organic solvent or mixture, ethanol, read-out: Solubility in ethanol) [mg/mL] | solubility in organic solvents (in words) ([3]; organic solvents such as ethanol) | solubility in water (in words) ([3]; water) | solubility ([3]; water, read-out: Solubility in water) [mg/mL] | logP [4] | effect on L-dopa induced dyskinesias ([5]; Parkinson's disease patients) | effect on underlying Parkinsonian motor symptoms ([5]; Parkinson's disease patients) | most frequent adverse events ([5]; patients) | Solubility in ethanol ([6]; ethanol) | Solubility in water ([6]; water) [mg/mL] |
| --- | --- | --- | --- | --- | --- | --- | --- | --- | --- | --- | --- | --- |
| COC(=O)N1CC[C@@H]2[C@H]1CCC[C@@]2(O)C#Cc1cccc(C)c1 [AFQ056, (−)-(3aR,4S,7aR)-Octahydro-4-hydroxy-4-[(3-methylphenyl)ethynyl]-1H-indole-1-carboxylic acid methyl ester] | 7 to 17 | steadily increasing solubility | ~53 (≈ 169 mM) | soluble | hardly soluble | ~0.02 (≈ 0.0638 mM) | 4.7 | reduction in L-dopa induced dyskinesias | without inducing any clinically or statistically significant worsening | dizziness, dyskinesia, nausea, fatigue, and hallucinations | – | – |
| CC(=O)Oc1ccccc1C(=O)O [Aspirin] | – | – | – | – | – | – | – | – | – | – | about 237 mg/ml | 8.4 (≈ 46.6 mM) |
